The values that follow come from ChEMBL document CHEMBL1138392, “Phenylalanyl-aminocyclophosphamides as model prodrugs for proteolytic activation: synthesis, stability, and stereochemical requirements for enzymatic cleavage” (Bioorg Med Chem Lett, 2007).

The nature of data set [1]: Stability in phosphate buffer assessed as hydrolysis at pH 7.4 after 3 days. The settings on record: read-out: Activity. It counts as physicochemical.
Data set [2] in a line: Stability in presence of alpha-chymotrypsin at 100 mM after 12 hrs. It counts as ADME. The following applies: 100000 µM.
The nature of data set [3]: Stability assessed as hydrolysis half life in presence of alpha-chymotrypsin. It is filed as ADME.

Regarding `N[C@@H](Cc1ccccc1)C(=O)N[C@H]1CCOP(=O)(N(CCCl)CCCl)N1` (some centres undefined), in data set [1], the degraded at 72 h is less than 10%. In data set [2], the Activity entry is given as “Not Active”. `N[C@@H](Cc1ccccc1)C(=O)N[C@@H]1CCOP(=O)(N(CCCl)CCCl)N1` (some centres undefined): the degraded at 72 h in data set [1] was less than 10%. The Activity result in data set [2] was “Not Active”.

Broadly, the half-life is the time needed for the level to fall by half in the phase considered. `O=C(N[C@@H](Cc1ccccc1)C(=O)N[C@@H]1CCOP(=O)(N(CCCl)CCCl)N1)OCc1ccccc1` (some centres undefined): the outcome in data set [2] was Active. Moreover, in data set [3] (alpha-chymotrypsin), the half-life is more than 12 h. In the case of `O=C(N[C@@H](Cc1ccccc1)C(=O)N[C@H]1CCOP(=O)(N(CCCl)CCCl)N1)OCc1ccccc1` (stereo in doubt; cis), the outcome in data set [2] was Active. Also, in data set [3], the t1/2 came to 0.333 h.

In the case of `O=C(N[C@@H](Cc1ccccc1)C(=O)N[C@H]1CCOP(=O)(N(CCCl)CCCl)N1)OCc1ccccc1` (stereo in doubt; trans), the t1/2 in data set [3] came out at 8.9 h.
